Data taken from ChEMBL document CHEMBL1158788, “Cytotoxic constituents of the fruit body of Daedalea dickisii” (J Nat Prod, 2005).
Active and inactive are the calls of the source. The rule behind the calls is not given here.

Columns and labels:
Assay type in all cases: functional, cell-based
HCT-15 = assay: Cytotoxicity against human HCT15 cells after 48 hrs by MTT assay; details: HCT-15, 48 h
HL-60 [1] = assay: Cytotoxicity against human HL60 cells after 24 hrs by MTT assay; details: HL-60, 24 h
HL-60 [2] = assay: Induction of apoptosis in human HL60 cells assessed as DNA fragmentation at 35 uM after 8 hrs

Structure (SMILES) | IC50 (HCT-15) [µM] | IC50 (HL-60 [1]) [µM] | Activity (HL-60 [2])
CC(C(=O)O)[C@@H](C)C(=O)C[C@@H](C)[C@H]1CC[C@@]2(C)C3=C(CC[C@]12C)[C@@]1(C)CC[C@@H](OC(=O)CC(=O)O)C(C)(C)[C@@H]1CC3 (some centres not stated) [CARBOXYACETYLQUERCINIC ACID] | 155 | 45.2 | 
C=C(CC[C@@H](C(=O)O)[C@H]1[C@H](O)C[C@@]2(C)c3ccc(C)c(CCC(=O)C(C)C)c3CC[C@]12C)C(C)C [DAEDALEANIC ACID A] | 206 | 36 | 
C=C(CC[C@@H](C(=O)O[C@@H]1O[C@H](CO)[C@@H](O)[C@H](O)[C@H]1O)[C@H]1[C@H](OC(C)=O)C[C@@]2(C)C3=CC[C@H]4C(C)(C)C(=O)CC[C@]4(C)C3=CC[C@]12C)C(C)C [DAEDALEASIDE B] | 55 | 9.4 | Active
C=C(CC[C@@H](C(=O)O[C@@H]1O[C@H](COC(C)=O)[C@@H](O)[C@H](O)[C@H]1O)[C@H]1[C@H](OC(C)=O)C[C@@]2(C)C3=CC[C@H]4C(C)(C)C(=O)CC[C@]4(C)C3=CC[C@]12C)C(C)C [DAEDALEASIDE C] |  | 12 | Active
C=C(CC[C@@H](C(=O)O[C@@H]1O[C@H](CO)[C@@H](O)[C@H](O)[C@H]1O)[C@H]1[C@H](OC(C)=O)C[C@@]2(C)C3=C(CC[C@]12C)[C@@]1(C)CCC(=O)C(C)(C)[C@@H]1CC3)C(C)C [DAEDALEASIDE D] | 60 | 14 | Active
C=C(CC[C@@H](C(=O)O[C@@H]1O[C@H](COC(C)=O)[C@@H](O)[C@H](O)[C@H]1O)[C@H]1[C@H](OC(C)=O)C[C@@]2(C)C3=C(CC[C@]12C)[C@@]1(C)CCC(=O)C(C)(C)[C@@H]1CC3)C(C)C [DAEDALEASIDE E] |  | 15 | Active
C=C(CC[C@@H](C(=O)O[C@@H]1O[C@H](CO)[C@@H](O)[C@H](O)[C@H]1O)[C@H]1[C@H](OC(C)=O)C[C@@]2(C)c3ccc(C)c(CCC(=O)C(C)C)c3CC[C@]12C)C(C)C [DAEDALEASIDES A] | 32.3 | 27.9 | 
COc1cc([C@@H]2c3cc4c(cc3[C@@H](O[C@@H]3O[C@@H]5CO[C@@H](C)O[C@H]5[C@H](O)[C@H]3O)[C@H]3COC(=O)[C@H]23)OCO4)cc(OC)c1O [ETOPOSIDE] |  | 25 | 
